System: patient's serum-derived HCV
Assay: HCV RNA in HuS-E/2 cells cultured in a hollow fiber and infected with patient's serum-derived HCV, with drug added (Example 5)
Assay type: cell-based, hepatitis C virus (HCV)
Settings: NIM811 1 μg/ml; added after 24 hours of infection; HuS-E/2 cells in hollow fiber; collected after 3, 5 and 7 days; PCR
Procedure: HuS-E/2 cells with a density of 1×10^5 cells/well were packed into a lumen of a hollow fiber of a cellulose triacetate hollow fiber module (Toyobo Co., Ltd.; Code: TMHFK-001) by applying a centrifugal force of 80 G for 90 seconds, and then were shake-cultured with use of a 12-well plate. After 24 hours, the culture fluid was replaced with 0.8 ml of a culture fluid, prepared with use of human hepatocellular serum-free culture fluid (Toyobo Co., Ltd.; Code: TMHHM-001), which contained serum-derived HCV with 2×10^5 genome copies/ml. After 24 hours of infection, the culture fluid was removed, and the HuS-E/2 cells were washed with PBS three times. Then, three types of new culture fluid were separately added, namely a culture fluid containing INF alpha (1000 IU/ml), a culture fluid containing NIM811 (1 μg/ml), and a culture fluid containing neither of them. Each of the culture fluids was replaced with a new one every two days. The HuS-E/2 cells were collected after 3, 5, and 7 days of infection with serum-derived HCV, and their total RNA was collected with use of a Sepasol I (Nacalai Tesque, Inc). The total RNA was assayed for HCV RNA by a PCR method.

SMILES: C/C=C/C[C@@H](C)[C@@H](O)[C@H]1C(=O)N[C@@H](CC)C(=O)N(C)CC(=O)N(C)[C@@H]([C@@H](C)CC)C(=O)N[C@@H](C(C)C)C(=O)N(C)[C@@H](CC(C)C)C(=O)N[C@@H](C)C(=O)N[C@H](C)C(=O)N(C)[C@@H](CC(C)C)C(=O)N(C)[C@@H](CC(C)C)C(=O)N(C)[C@@H](C(C)C)C(=O)N1C [NIM811]
- proliferation of patient's serum-derived HCV in the cells (HCV RNA): remarkably inhibits
